# Source: patent publication US4618612A (Medosan Industrie Biochimiche Riunite S.p.A., priority 1983, dated 1986)
# Where two headings read alike, the source gives them in different places.
# What was measured:
# [1] = tested on: rat platelet-rich plasma (ADP-induced platelet aggregation); assay: Anti-platelet aggregation activity in vitro (Born's method), rat platelet-rich plasma, ADP-induced; type: cell-based
# Protocol: Preparations (A), (B), (C), (D), (E) and (F) were administered "in vivo" orally and/or parenterally in 0.5% carboxymethylcellulose suspensions in physiological saline at neutral pH. When tested "in vitro", they were finely dispersed in neutral pH physiological saline.
# This was studied "in vitro" following Born's method (Born G. W. R., Nature, 194, 937 (1962)) and inducing platelet aggregation with ADP.
# Platelet-rich plasma was obtained by centrifugation for 10 minutes at 2,000 rpm of 9 parts rat blood to 1 part 3.13% sodium citrate solution. In performing the aggregation test, 0.2 ml of platelet rich plasm was mixed with a 0.9% NaCl solution to which the test substance was added to a final volume of 0.6 ml; the resulting mixture was incubated at 27° C. for 3 minutes. After inducement with ADP, aggregation was measured continuously with an Elvi 840 Aggregometer (Elvi Logos-Milan) to follow its course. The anti-aggregant effects were determined from the difference in the light transmission of the sample with respect to an ADP control.
# Table I reports the platelet aggregation inhibition using different doses of the test compounds at a constant ADP concentration.
# [2] = tested on: human platelet aggregation (PRP); assay: Human platelet aggregation in vitro induced by ADP, adrenalin, collagen or arachidonate; type: cell-based; details: Homo sapiens
# Protocol: Blood samples (20 ml) were obtained by venal puncture of the antecubital fossa using plastic syringes containing trisodium citrate as anticoagulant (final concentration 0.19% w/v). Platelet rich plasma (PRP) was harvested after slow centrifugation at 170 g for 12 min. and 0.2 ml aliquots were dispensed into plastic cuvettes and stored at room temperature throughout the experiment.
# Aliquots of 0.2 ml PRP from each sample were treated with ADP, adrenalin, collagen or arachidonate, until the threshold concentrations of these aggregating agents had been reached. The threshold concentration is defined as the minimum whcih will produce irreversible aggregation. Once established, the threshold concentration was used to challenge test samples of each of the 2 test compounds or vehicle (DMSO) which had been incubated for 1 min. at 37 C. in the holding cell of the agregometer, prior to addition of the aggregating agent.
# This was reported as the final concentration in the PRP after addition of 2.5-10 ul of test substance.
# carragenin-induced edema = assay: Carragenin-induced edema test (Winter); type: in vivo, rat
# Protocol: This effect was measured with an experimental model reproducing acute inflammation in rats: the carragenin-induced edema test according to C.
# gastric mucosa = assay: Gastric tolerance (ulcerogenic activity); type: in vivo, male Wistar rats; details: 4 days; for Mean Severity: scale 0-5; for Gastric Damage index: vehicle 8
# Protocol: This was studied by conducting tests of ulcerogenic activity in male Wistar rats, weighing 180 g on the average, in groups of 10 animals each. Three doses of each substance were given, and one group of animals was treated with vehicle only in a volume of 10 ml/kg bodyweight. Each dose was given orally for four consecutive days; on the fifth day, the rats were killed and autopsied. The ulcerogenic effect was assessed according to the following scale:
# (1) each hemorrhage point ≥1 mm was evaluated as 1 lesion
# (2) hemorrhage points smaller than 1 mm were counted as follows:
# (b) from 1 to 19:2 lesions
# (c) from 1 to 29:3 lesions
# (2) gastric mucosa irritation: 1
# (3) hemorrahge points <1 mm: 2
# (4) hemorrhage points between 1 and 3 mm: 3
# (5) hemorrhage points >3 mm: 4
# This scale was used to calculate the following gastric damage index: [formula]
# in vivo [3] = details: mouse, mice
# in vivo [4] = details: rat, rats
# Solubility = type: physicochemical; details: common organic solvents
# [5] = ADP 2 μmol/l, dose 1 V/ml (Table II)
# [6] = ADP 5 μmol/l, dose 1 V/ml (Table II)
# [7] = ADP 7.08 μmol/l, dose 1 /ml (Table I)
# [8] = ADP 7.08 μmol/l, dose 2,5 /ml (Table I)
# [9] = ADP 7.08 μmol/l, dose 5 /ml (Table I)
smiles,measurement,setting,value
"Cc1ccc(C(=O)c2ccc(CC(=O)OCCn3cnc4c3c(=O)n(C)c(=O)n4C)n2C)cc1 [(A), 1-Methyl-5-p-methylbenzoylpyrrol-2-acetate of 7-(2-oxyethyl)theophylline]",% Inhibition,[1]; [5],42%
same,% Inhibition,[1]; [6],30%
same,% Inhibition,[1]; [7],25%
same,% Inhibition,[1]; [8],100%
same,% Inhibition,[1]; [9],100%
same,minimal effective concentration,"[2]; ATH-8, 1 min, ADP, volunteer 3, read-out: Minimum Effective Concentration (Final in PRP)",100 µM
same,minimal effective concentration,"[2]; ATH-8, 1 min, Adrenalin, volunteer 3, read-out: Minimum Effective Concentration (Final in PRP)",10 µM
same,minimal effective concentration,"[2]; ATH-8, 1 min, Arachidonate, volunteer 3, read-out: Minimum Effective Concentration (Final in PRP)",250 µM
same,minimal effective concentration,"[2]; ATH-8, 1 min, Collagen, volunteer 3, read-out: Minimum Effective Concentration (Final in PRP)",700 µM
same,minimal effective concentration,"[2]; Platelet, 1 min, ADP, volunteer 1, read-out: Minimum Effective Concentration (Final in PRP)",10 µM
same,minimal effective concentration,"[2]; Platelet, 1 min, ADP, volunteer 2 (donor gamma), read-out: Minimum Effective Concentration (Final in PRP)",10 µM
same,minimal effective concentration,"[2]; Platelet, 1 min, Adrenalin, range over 3 volunteers, read-out: Minimum Effective Concentration Range",10 µM
same,minimal effective concentration,"[2]; Platelet, 1 min, Adrenalin, volunteer 1, read-out: Minimum Effective Concentration (Final in PRP)",10 µM
same,minimal effective concentration,"[2]; Platelet, 1 min, Adrenalin, volunteer 2 (donor gamma), read-out: Minimum Effective Concentration (Final in PRP)",10 µM
same,minimal effective concentration,"[2]; Platelet, 1 min, Arachidonate, volunteer 1, read-out: Minimum Effective Concentration (Final in PRP)",100 µM
same,minimal effective concentration,"[2]; Platelet, 1 min, Arachidonate, volunteer 2 (donor gamma), read-out: Minimum Effective Concentration (Final in PRP)",10 µM
same,minimal effective concentration,"[2]; Platelet, 1 min, Collagen, volunteer 1, read-out: Minimum Effective Concentration (Final in PRP)",100 µM
same,minimal effective concentration,"[2]; Platelet, 1 min, Collagen, volunteer 2 (donor gamma), read-out: Minimum Effective Concentration (Final in PRP)",550 µM
same,% Edema Inhibition,"carragenin-induced edema; I.P., 10 mg/kg, 3 h","35,0%"
same,% Edema Inhibition,"carragenin-induced edema; I.P., 10 mg/kg, 6 h","26,0%"
same,% Edema Inhibition,"carragenin-induced edema; I.P., 10 mg/kg, 24 h","0,0%"
same,% Edema Inhibition,"carragenin-induced edema; I.P., 50 mg/kg, 3 h","54,0%"
same,% Edema Inhibition,"carragenin-induced edema; I.P., 50 mg/kg, 6 h","40,0%"
same,% Edema Inhibition,"carragenin-induced edema; I.P., 50 mg/kg, 24 h","0,0%"
same,% Edema Inhibition,"carragenin-induced edema; I.P., 100 mg/kg, 3 h","65,0%"
same,% Edema Inhibition,"carragenin-induced edema; I.P., 100 mg/kg, 6 h","56,1%"
same,% Edema Inhibition,"carragenin-induced edema; I.P., 100 mg/kg, 24 h","0,0%"
same,% Edema Inhibition,"carragenin-induced edema; OS, 10 mg/kg, 3 h","34,6%"
same,% Edema Inhibition,"carragenin-induced edema; OS, 10 mg/kg, 6 h","22,2%"
same,% Edema Inhibition,"carragenin-induced edema; OS, 10 mg/kg, 24 h","0,0%"
same,% Edema Inhibition,"carragenin-induced edema; OS, 50 mg/kg, 3 h","52,0%"
same,% Edema Inhibition,"carragenin-induced edema; OS, 50 mg/kg, 6 h","41,1%"
same,% Edema Inhibition,"carragenin-induced edema; OS, 50 mg/kg, 24 h","0,0%"
same,% Edema Inhibition,"carragenin-induced edema; OS, 100 mg/kg, 3 h","62,0%"
same,% Edema Inhibition,"carragenin-induced edema; OS, 100 mg/kg, 6 h","57,3%"
same,% Edema Inhibition,"carragenin-induced edema; OS, 100 mg/kg, 24 h","10,0%"
same,% incidence 10,gastric mucosa; 50 mg/kg oral,6 %/10
same,"Gastric Damage index, second figure (after +; difference from vehicle)",gastric mucosa; 50 mg/kg oral,1
same,Mean No. lesions,gastric mucosa; 50 mg/kg oral,1
same,Mean Severity,gastric mucosa; 50 mg/kg oral,2
same,Gastric Damage index,gastric mucosa; 50 mg/kg oral,9
same,% incidence 10,gastric mucosa; 100 mg/kg oral,8 %/10
same,"Gastric Damage index, second figure (after +; difference from vehicle)",gastric mucosa; 100 mg/kg oral,4
same,Mean No. lesions,gastric mucosa; 100 mg/kg oral,2
same,Mean Severity,gastric mucosa; 100 mg/kg oral,2
same,Gastric Damage index,gastric mucosa; 100 mg/kg oral,12
same,% incidence 10,gastric mucosa; 200 mg/kg oral,8 %/10
same,"Gastric Damage index, second figure (after +; difference from vehicle)",gastric mucosa; 200 mg/kg oral,6
same,Mean No. lesions,gastric mucosa; 200 mg/kg oral,3
same,Mean Severity,gastric mucosa; 200 mg/kg oral,3
same,Gastric Damage index,gastric mucosa; 200 mg/kg oral,14
same,LD50,"in vivo [3]; ip, I.P.",950 mg/kg
same,LD50,"in vivo [3]; po, OS",1270 mg/kg
same,LD50,"in vivo [4]; ip, I.P.",800 mg/kg
same,LD50,"in vivo [4]; po, OS",1150 mg/kg
same,Solubility,Solubility,Soluble in common organic solvents
"Cc1cc(CC(=O)OCCn2cnc3c2c(=O)n(C)c(=O)n3C)n(C)c1C(=O)c1ccc(Cl)cc1 [(B), 1,4-Dimethyl-5-p-chlorobenzoylpyrrol-2-acetate of 7-(2-oxyethyl)theophylline]",% Inhibition,[1]; [5],31%
same,% Inhibition,[1]; [6],25%
same,% Inhibition,[1]; [7],20%
same,% Inhibition,[1]; [8],70%
same,% Inhibition,[1]; [9],90%
same,% Edema Inhibition,"carragenin-induced edema; I.P., 5 mg/kg, 3 h","65,2%"
same,% Edema Inhibition,"carragenin-induced edema; I.P., 5 mg/kg, 6 h","60,5%"
same,% Edema Inhibition,"carragenin-induced edema; I.P., 5 mg/kg, 24 h","10,5%"
same,% Edema Inhibition,"carragenin-induced edema; I.P., 10 mg/kg, 3 h","70,6%"
same,% Edema Inhibition,"carragenin-induced edema; I.P., 10 mg/kg, 6 h","71,3%"
same,% Edema Inhibition,"carragenin-induced edema; I.P., 10 mg/kg, 24 h","15,0%"
same,% Edema Inhibition,"carragenin-induced edema; I.P., 2,5 mg/kg, 3 h","52,0%"
same,% Edema Inhibition,"carragenin-induced edema; I.P., 2,5 mg/kg, 6 h","50,0%"
same,% Edema Inhibition,"carragenin-induced edema; I.P., 2,5 mg/kg, 24 h","5,1%"
same,% Edema Inhibition,"carragenin-induced edema; OS, 5 mg/kg, 3 h","66,0%"
same,% Edema Inhibition,"carragenin-induced edema; OS, 5 mg/kg, 6 h","60,0%"
same,% Edema Inhibition,"carragenin-induced edema; OS, 5 mg/kg, 24 h","12,0%"
same,% Edema Inhibition,"carragenin-induced edema; OS, 10 mg/kg, 3 h","73,0%"
same,% Edema Inhibition,"carragenin-induced edema; OS, 10 mg/kg, 6 h","70,3%"
same,% Edema Inhibition,"carragenin-induced edema; OS, 10 mg/kg, 24 h","20,0%"
same,% Edema Inhibition,"carragenin-induced edema; OS, 2,5 mg/kg, 3 h","56,4%"
same,% Edema Inhibition,"carragenin-induced edema; OS, 2,5 mg/kg, 6 h","53,0%"
same,% Edema Inhibition,"carragenin-induced edema; OS, 2,5 mg/kg, 24 h","10,0%"
same,% incidence 10,gastric mucosa; 5 mg/kg oral,8 %/10
same,"Gastric Damage index, second figure (after +; difference from vehicle)",gastric mucosa; 5 mg/kg oral,5
same,Mean No. lesions,gastric mucosa; 5 mg/kg oral,"2,5"
same,Mean Severity,gastric mucosa; 5 mg/kg oral,"2,5"
same,Gastric Damage index,gastric mucosa; 5 mg/kg oral,13
same,% incidence 10,gastric mucosa; 10 mg/kg oral,9 %/10
same,"Gastric Damage index, second figure (after +; difference from vehicle)",gastric mucosa; 10 mg/kg oral,8
same,Mean No. lesions,gastric mucosa; 10 mg/kg oral,3
same,Mean Severity,gastric mucosa; 10 mg/kg oral,4
same,Gastric Damage index,gastric mucosa; 10 mg/kg oral,16
same,% incidence 10,"gastric mucosa; 2,5 mg/kg oral",7 %/10
same,"Gastric Damage index, second figure (after +; difference from vehicle)","gastric mucosa; 2,5 mg/kg oral",2
same,Mean No. lesions,"gastric mucosa; 2,5 mg/kg oral",1
same,Mean Severity,"gastric mucosa; 2,5 mg/kg oral",2
same,Gastric Damage index,"gastric mucosa; 2,5 mg/kg oral",10
same,LD50,"in vivo [3]; ip, I.P.",140 mg/kg
same,LD50,"in vivo [3]; po, OS",160 mg/kg
same,LD50,"in vivo [4]; ip, I.P.",100 mg/kg
same,LD50,"in vivo [4]; po, OS",150 mg/kg
same,Solubility,Solubility,Soluble in common organic solvents
